{"source": "paper PMC2703642", "about": "“PpoR is a conserved unpaired LuxR solo of Pseudomonas putida which binds N-acyl homoserine lactones” (BMC Microbiology, 2009)"}
{"biological_target": "T1, PpoR (Pseudomonas putida, UniProt Q88E21)", "T1 construct": "gene PP_4647; full-length, 235 aa [sic] (705 bp ORF); 721-bp fragment with entire ppoR cloned SphI-HindIII in pQE30 (pQEPpoR); expressed in E. coli M15(pRep4); not purified", "T1 sequence (Q88E21 entry or part of it)": "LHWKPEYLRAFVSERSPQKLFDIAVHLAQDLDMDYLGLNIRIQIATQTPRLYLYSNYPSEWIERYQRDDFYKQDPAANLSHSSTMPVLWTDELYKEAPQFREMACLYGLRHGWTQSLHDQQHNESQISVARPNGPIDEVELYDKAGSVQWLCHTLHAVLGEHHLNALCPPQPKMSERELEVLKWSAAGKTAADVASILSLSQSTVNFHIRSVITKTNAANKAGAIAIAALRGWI", "experiment": "AHL retention in washed E. coli cells expressing PpoR, ethyl acetate extraction, TLC with A. tumefaciens NTL4 (pZLR4) overlay", "assay_type": "cell-based", "conditions": "1 uM AHL in LB, 30 C, IPTG induction 3.5 h; pQE30 vector-only control"}
{"smiles": "CCCC(=O)CC(=O)N[C@H]1CCOC1=O", "note": "[3-oxo-C6-HSL]", "AHL retention in washed E. coli cells expressing PpoR, ethyl acetate extraction,": "Purification of AHLs from E. coli over-expressing PpoR resulted in detection of 3-oxo-C6-HSL"}
{"smiles": "CCCCCC(=O)CC(=O)N[C@H]1CCOC1=O", "note": "[3-oxo-C8-HSL]", "AHL retention in washed E. coli cells expressing PpoR, ethyl acetate extraction,": "PpoR also exhibited probable binding to 3-oxo-C8-HSL and 3-oxo-C10-HSL, but to a lower extent"}
{"smiles": "CCCCCCCC(=O)CC(=O)N[C@H]1CCOC1=O", "note": "[3-oxo-C10-HSL]", "AHL retention in washed E. coli cells expressing PpoR, ethyl acetate extraction,": "PpoR also exhibited probable binding to 3-oxo-C8-HSL and 3-oxo-C10-HSL, but to a lower extent"}
